Source: the NIST ThermoML archive (doi:10.1016/j.fluid.2007.01.043)
± gives the expanded uncertainty stated by the source.

Assay: cn = amount concentration of the nth substance listed, in mol/dm3
Details: 308 K, Liquid; for mass density: 101 kPa; for viscosity: 101.3 kPa

| Structure (SMILES) | mass density (c1 = 0.06) | mass density (c1 = 0.1) | viscosity (c1 = 0.06) | viscosity (c1 = 0.1) |
| --- | --- | --- | --- | --- |
| O=[N+]([O-])[O-].O=[N+]([O-])[O-].[Cu+2] [copper dinitrate] + O | 1002.3 ± 0.8 kg/m3 | 1008.6 ± 0.8 kg/m3 | 0.7347 ± 0.019 mPa·s | 0.7487 ± 0.02 mPa·s |
| [Cl][Ni][Cl] [nickel chloride (NiCl2)] + O | 994.09 ± 0.7 kg/m3 | 1004 ± 0.7 kg/m3 | 0.7261 ± 0.019 mPa·s | 0.7469 ± 0.019 mPa·s |
